# Earlier results in patent publication US11547680B2, “Benzalkonium-embedded mesostructured silica compositions and uses of same” (RUTGERS, THE STATE UNIVERSITY OF NEW JERSEY, priority 2018, dated 2023).
# Details: aqueous solution
substance,measurement,value
benzalkonium chloride [BAC],critical micelle concentration (CMC),ca. 0.5 mM
